Data: patent US20180163179A1, “METHOD FOR IMPROVEMENT OF DRUG METABOLISM OF HUMAN STEM CELL-DERIVED HEPATOCYTES” (KOREA ADVANCED INSTITUTE OF SCIENCE AND TECHNOLOGY, priority 2015, published 2018)

Legend:
[1] = system: human embryonic stem cell-derived hepatocytes (hES-Hep); conditions: hES-Hep treated with alcohol (200 mM ethanol, 24 hours), without co-culture, FIG. 6
Description: 2×10^5 mouse hepatic stellate cells were cultured on the plate (Corning, USA) with 8 μm holes coated with human embryonic stem cell-derived hepatocytes cultured in DMEM supplemented with 10% FBS. The cell ratio of mouse hepatic stellate cells to human embryonic stem cell-derived hepatocytes was maintained as 1:2. […] 48 hours later, the cells and the medium were collected (FIG. 4).
Human embryonic stem cell-derived hepatocytes were co-cultured with mouse hepatic stellate cells. Then, TUNEL assay was performed to investigate apoptosis therein.
Apoptosis was investigated by using In Situ Cell Death Detection Kit (Fluorescence, Roche). Nucleus of the cell was stained with DAPI, followed by visualization using Leica DMI 4000B automatic vertical microscope system (Germany) equipped with Leica EL6000 and Leica CTR 4000 CCD camera. Computer assisted images were analyzed with Leica Application Suite Advanced Fluorescence (LAS AF, Leica).

[2] = system: human embryonic stem cell-derived hepatocytes (hES-Hep); conditions: hES-Hep treated with alcohol, real-time PCR, FIG. 3
Description: Particularly, total RNA was extracted from the adult Hep, Fetal-Hep, and human embryonic stem cell-derived hepatocytes by using Trizol reagent (Invitrogen), followed by cDNA synthesis by using amfi-rivert II cDNA synthesis Master Mix (Gendepot) according to the manufacturer's protocol. Genes in interest were amplified from the transcript by using the primers listed in the Table 1 below by using SYBR green real-time PCR master mix (Toyobo, Japan). The real-time PCR was performed by using Bio-rad CFX96 real-time PCR detection system (Bio-rad). The gene expression level was calculated by ΔΔCt method and by using β-actin as a denominator of the gene expression. Compared with the control gene expression, the obtained value was presented as fold change.

[3] = system: human embryonic stem cell-derived hepatocytes (hES-Hep); experiment: Gene expression (real time PCR) after the treatment of retinoic acid; assay type: cell-based; conditions: 1 ump all-trans retinoic acid or 9-cis-retinoic acid, culture 12~24 hours, FIG. 16
Description: Human embryonic stem cell-derived hepatocytes were treated with retinoic acid, followed by investigation of the gene expressions of alcohol metabolism associated enzymes, drug metabolism associated enzymes, and anti-oxidant enzymes.
(§1) Particularly, the human embryonic stem cell-derived hepatocytes differentiated by the same manner as described in Example 1 were treated with 1 ump all-trans retinoic acid or 9-cis-retinoic acid, followed by culture for 12˜24 hours. Then, real time PCR was performed by the same manner as described in Experimental Example <1˜3> in order to examine the expressions of alcohol metabolism associated enzymes (AHD1a, ADH1b, ADH1c, and CYP2E1), drug metabolism associated enzymes (CYP2C9, CYP2D6, and CYP3A4), and anti-oxidant enzymes (catalase and Mn-SOD).

[4] = system: human embryonic stem cell-derived hepatocytes (hES-Hep); experiment: Gene expression (real time PCR) after the treatment of retinoic acid and ethanol; assay type: cell-based; conditions: 1 ump all-trans retinoic acid and 0.2 M EtOH, culture 24 hours, FIG. 17
Description: Human embryonic stem cell-derived hepatocytes were treated with retinoic acid and ethanol, followed by investigation of the gene expressions of alcohol metabolism associated enzymes, drug metabolism associated enzymes, and anti-oxidant enzymes.
as §1, with “and 0.2 M EtOH,” for “or 9-cis-retinoic acid,”, “24” for “12˜24”, “<1-3>” for “<1˜3>”, “CYP2E1)” for “CYP2E1), drug metabolism associated enzymes (CYP2C9, CYP2D6, and CYP3A4),”

[5] = system: human embryonic stem cell-derived hepatocytes (hES-Hep); experiment: Immunocytochemistry (immunofluorescence) of CYP2E1 after the treatment of retinoic acid; assay type: cell-based; conditions: 1 ump all-trans retinoic acid and 0.2 M EtOH, culture 24 hours, anti-CYP2E1 antibody, FIG. 18
Description: Human embryonic stem cell-derived hepatocytes were treated with retinoic acid, followed by immunofluorescence in order to examine the expression of CYP2E1, the alcohol metabolism associated enzyme.
Particularly, the human embryonic stem cell-derived hepatocytes differentiated by the same manner as described in Example 1 were treated with 1 ump all-trans retinoic acid and 0.2 M EtOH, followed by culture for 24 hours. The cells were fixed with 4% paraformaldehyde. […] Blocking was performed by treating the cells with 5% goat serum at 37° C. for 1 hour. The cells were stained with anti-CYP2E1 antibody (Millipore, Germany).

Row | expressions of alcohol metabolism associated enzymes (AHD1a, ADH1b, ADH1c, CYP2E1), drug metabolism associated enzymes (CYP2C9, CYP2D6, CYP3A4) and anti-oxidant enzymes (catalase, Mn-SOD) [3] | expressions of alcohol metabolism associated enzymes (AHD1a, ADH1b, ADH1c, CYP2E1) and anti-oxidant enzymes (catalase, Mn-SOD) [4] | expression of CYP2E1 (immunofluorescence) [5] | SMILES | apoptosis (TUNEL) [1] | expression of alcohol metabolism associated enzymes [2]
1 |  |  |  | CCO [alcohol, ethanol] | increased | up-regulated
2 | all increased | all increased | significantly increased | CC1=C(/C=C/C(C)=C/C=C/C(C)=C/C(=O)O)C(C)(C)CCC1 [retinoic acid] |  | 
